Laboratory results: PMC2954055 (Journal of immunology (Baltimore, Md. : 1950), 2009)

Target: BRS peptide (biotinylated peptide consisting of just the BRS of CD3 ε) (Mus musculus, UniProt P22646)
Test: solid-phase ELISA, biotinylated peptide, streptavidin-HRP
Assay type: binding
Conditions: PBS, room temperature, data not shown

PI(4)P
Kd (20/80 PI(4)P/PC coated on plate): ~0.04 µM

PI(4,5)P2
Kd (20/80 PI(4,5)P2/PC coated on plate): ~0.04 µM
